Test results reported in PMC6688997 (Nature Communications, 2019).
Values joined by “and” are separate entries in the source; they are usually repeats but may differ in a detail not shown here. Identical values can stand only once.

Key:
AurC = target: T1, AurC (Homo sapiens, UniProt Q9UQB9); test: Kinase assay, ATP Km; format: biochemical
T1 construct: purchased Carna Biosciences

WNK2 = target: T2, WNK2 (Homo sapiens, UniProt Q9Y3S1); test: Kinase assay, ATP Km; format: biochemical
T2 construct: purchased Carna Biosciences
T2 sequence (Q9Y3S1 whole entry): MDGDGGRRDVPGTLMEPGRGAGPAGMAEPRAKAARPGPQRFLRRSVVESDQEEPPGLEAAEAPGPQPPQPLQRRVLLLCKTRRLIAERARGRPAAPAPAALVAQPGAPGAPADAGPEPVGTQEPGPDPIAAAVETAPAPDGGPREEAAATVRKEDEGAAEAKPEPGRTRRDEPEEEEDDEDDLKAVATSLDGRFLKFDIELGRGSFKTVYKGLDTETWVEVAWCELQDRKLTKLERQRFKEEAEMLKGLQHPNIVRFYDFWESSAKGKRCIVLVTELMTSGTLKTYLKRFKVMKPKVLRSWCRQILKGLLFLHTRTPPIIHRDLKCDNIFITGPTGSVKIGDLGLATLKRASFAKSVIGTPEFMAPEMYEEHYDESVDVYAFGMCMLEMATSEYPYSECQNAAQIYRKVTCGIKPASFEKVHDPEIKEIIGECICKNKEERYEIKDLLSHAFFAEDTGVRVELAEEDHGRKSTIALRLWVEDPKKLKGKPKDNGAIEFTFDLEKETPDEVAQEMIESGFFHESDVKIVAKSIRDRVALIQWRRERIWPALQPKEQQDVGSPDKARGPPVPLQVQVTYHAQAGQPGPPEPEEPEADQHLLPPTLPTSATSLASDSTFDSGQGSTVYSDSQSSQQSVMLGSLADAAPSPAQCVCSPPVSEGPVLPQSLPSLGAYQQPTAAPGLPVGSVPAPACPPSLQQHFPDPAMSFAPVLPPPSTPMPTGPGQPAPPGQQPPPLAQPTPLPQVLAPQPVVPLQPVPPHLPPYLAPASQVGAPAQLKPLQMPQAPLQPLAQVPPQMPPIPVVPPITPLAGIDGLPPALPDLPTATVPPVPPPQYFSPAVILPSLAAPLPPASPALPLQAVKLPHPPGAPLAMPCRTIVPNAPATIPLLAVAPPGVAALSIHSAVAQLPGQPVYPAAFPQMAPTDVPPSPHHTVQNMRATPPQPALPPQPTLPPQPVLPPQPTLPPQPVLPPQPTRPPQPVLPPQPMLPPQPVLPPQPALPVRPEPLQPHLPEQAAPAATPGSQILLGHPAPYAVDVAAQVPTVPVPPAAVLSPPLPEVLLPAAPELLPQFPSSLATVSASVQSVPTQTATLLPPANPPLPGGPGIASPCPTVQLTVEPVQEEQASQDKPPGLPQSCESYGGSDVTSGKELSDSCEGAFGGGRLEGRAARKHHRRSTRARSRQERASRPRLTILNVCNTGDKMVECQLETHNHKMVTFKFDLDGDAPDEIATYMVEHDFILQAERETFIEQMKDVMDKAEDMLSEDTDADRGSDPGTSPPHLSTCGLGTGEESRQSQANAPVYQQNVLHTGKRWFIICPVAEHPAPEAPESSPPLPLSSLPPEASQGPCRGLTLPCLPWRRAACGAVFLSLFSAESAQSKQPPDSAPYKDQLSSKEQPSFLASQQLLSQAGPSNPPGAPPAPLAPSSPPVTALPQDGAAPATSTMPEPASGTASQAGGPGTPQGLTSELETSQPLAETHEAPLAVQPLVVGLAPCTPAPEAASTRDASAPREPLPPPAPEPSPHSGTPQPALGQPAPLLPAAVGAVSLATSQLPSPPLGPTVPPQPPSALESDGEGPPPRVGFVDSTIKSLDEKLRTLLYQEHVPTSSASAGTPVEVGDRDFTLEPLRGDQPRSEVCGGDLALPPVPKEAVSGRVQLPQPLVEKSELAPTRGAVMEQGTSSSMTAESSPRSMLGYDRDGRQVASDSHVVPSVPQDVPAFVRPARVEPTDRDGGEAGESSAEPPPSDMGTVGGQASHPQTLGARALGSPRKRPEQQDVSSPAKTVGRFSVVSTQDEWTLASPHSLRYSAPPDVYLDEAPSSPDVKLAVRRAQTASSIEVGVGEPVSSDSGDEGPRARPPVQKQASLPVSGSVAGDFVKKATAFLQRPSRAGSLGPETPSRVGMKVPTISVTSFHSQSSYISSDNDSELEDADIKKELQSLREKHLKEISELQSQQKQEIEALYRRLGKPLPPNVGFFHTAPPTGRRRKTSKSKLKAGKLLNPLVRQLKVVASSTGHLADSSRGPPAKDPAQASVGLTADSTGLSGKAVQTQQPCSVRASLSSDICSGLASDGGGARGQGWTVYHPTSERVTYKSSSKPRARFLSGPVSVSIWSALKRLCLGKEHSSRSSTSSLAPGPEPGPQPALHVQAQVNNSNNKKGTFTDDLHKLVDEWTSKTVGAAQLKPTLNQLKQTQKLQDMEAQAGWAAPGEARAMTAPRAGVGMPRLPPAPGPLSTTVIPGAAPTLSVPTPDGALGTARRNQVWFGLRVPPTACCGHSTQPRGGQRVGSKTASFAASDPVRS

[1] = Body weight of U-118 MG xenograft mice; format: in vivo, mouse; conditions: for Body Weight Change(%): individual animals; for Body Weight Change(%) (average / SD): N 5

T1 sequence (Q9UQB9 whole entry): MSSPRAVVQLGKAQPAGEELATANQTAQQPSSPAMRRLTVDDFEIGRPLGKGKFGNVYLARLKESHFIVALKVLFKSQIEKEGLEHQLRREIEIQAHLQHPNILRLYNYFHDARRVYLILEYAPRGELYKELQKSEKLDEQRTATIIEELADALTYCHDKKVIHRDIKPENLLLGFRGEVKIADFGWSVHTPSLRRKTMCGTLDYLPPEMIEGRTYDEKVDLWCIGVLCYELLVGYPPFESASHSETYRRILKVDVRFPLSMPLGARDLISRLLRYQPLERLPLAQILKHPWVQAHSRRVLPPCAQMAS

## C[C@@H](N)COc1ccc(-c2cnc3ccc(N[C@H](C)c4cccc(F)c4)nn23)cc1.O=C(O)CCCCC(=O)O [DS-6051b]
AurC
  inhibition at 0.04 µM: 35.7%
WNK2
  inhibition at 0.04 µM: -1.8%
[1]; 25 mg/kg po, day 10
  Body Weight Change(%): 0.0%
[1]; 25 mg/kg po, day 11
  Body Weight Change(%): -2.5% and -1.4% and -4.1% and -0.9% and 0.0%
[1]; 25 mg/kg po, day 12
  Body Weight Change(%): -3.5% and 0.0% and -2.7% and -1.4% and 1.9%
[1]; 25 mg/kg po, day 13
  Body Weight Change(%): -4.0% and -0.9% and -3.2% and 2.4%
[1]; 25 mg/kg po, day 14
  Body Weight Change(%): -5.1% and -2.8% and -5.0% and -0.9% and 2.4%
[1]; 25 mg/kg po, day 15
  Body Weight Change(%): -6.1% and -1.4% and -5.0% and 3.8%
[1]; 25 mg/kg po, day 16
  Body Weight Change(%): -9.1% and -0.9% and -6.3% and -2.3% and 4.3%
[1]; 25 mg/kg po, day 17
  Body Weight Change(%): -7.6% and 1.9% and -5.0% and -0.9% and 5.2%
[1]; 25 mg/kg po, day 18
  Body Weight Change(%): -7.6% and 0.5% and -4.5% and -0.9% and 5.7%
[1]; 25 mg/kg po, day 19
  Body Weight Change(%): -8.1% and 1.4% and -2.3% and -1.4% and 6.6%
[1]; 25 mg/kg po, day 20
  Body Weight Change(%): -7.6% and 0.9% and -1.8% and -2.3% and 5.2%
[1]; 25 mg/kg po, day 21
  Body Weight Change(%): -6.6% and 0.0% and -2.3% and -3.6% and 6.2%
[1]; 25 mg/kg po, day 22
  Body Weight Change(%): -6.6% and 2.4% and -2.3% and -2.7% and 4.3%
[1]; 25 mg/kg po, day 23
  Body Weight Change(%): -8.6% and 1.9% and -0.9% and 4.7%
[1]; 25 mg/kg po, day 24
  Body Weight Change(%): -4.5% and 2.8% and -2.3% and 0.9% and 5.2%
[1]; 25 mg/kg po, day 25
  Body Weight Change(%): -3.0% and 3.3% and -1.4% and 3.6% and 6.2%
[1]; 25 mg/kg po, day 26
  Body Weight Change(%): -2.5% and 6.6% and -1.4% and 3.6% and 9.5%
[1]; 25 mg/kg po, day 27
  Body Weight Change(%): -1.5% and 6.6% and -0.5% and 2.7% and 6.2%
[1]; 25 mg/kg po, day 28
  Body Weight Change(%): -0.5% and 5.2% and -0.9% and 3.2% and 7.1%
[1]; 25 mg/kg, day 0
  Body Weight Change(%) (average / SD): 0.0%
[1]; 25 mg/kg, day 1
  Body Weight Change(%) (average / SD): -1.8%
[1]; 25 mg/kg, day 2
  Body Weight Change(%) (average / SD): -1.1%
[1]; 25 mg/kg, day 3
  Body Weight Change(%) (average / SD): -1.3%
[1]; 25 mg/kg, day 4
  Body Weight Change(%) (average / SD): -2.3%
[1]; 25 mg/kg, day 5
  Body Weight Change(%) (average / SD): -2.0%
[1]; 25 mg/kg, day 6
  Body Weight Change(%) (average / SD): -2.9%
[1]; 25 mg/kg, day 7
  Body Weight Change(%) (average / SD): -1.3%
[1]; 25 mg/kg, day 8
  Body Weight Change(%) (average / SD): -1.4%
[1]; 25 mg/kg, day 9
  Body Weight Change(%) (average / SD): -0.8%
[1]; 25 mg/kg, day 10
  Body Weight Change(%) (average / SD): -1.1%
[1]; 25 mg/kg, day 11
  Body Weight Change(%) (average / SD): -1.3%
[1]; 25 mg/kg, day 12
  Body Weight Change(%) (average / SD): -1.0%
[1]; 25 mg/kg, day 13
  Body Weight Change(%) (average / SD): -0.8%
[1]; 25 mg/kg, day 14
  Body Weight Change(%) (average / SD): 0.4%
[1]; 25 mg/kg, day 15
  Body Weight Change(%) (average / SD): 1.7%
[1]; 25 mg/kg, day 16
  Body Weight Change(%) (average / SD): 3.2%
[1]; 25 mg/kg, day 17
  Body Weight Change(%) (average / SD): 2.7%
[1]; 25 mg/kg, day 18
  Body Weight Change(%) (average / SD): 2.8%
[1]; 50 mg/kg po, day 10
  Body Weight Change(%): 0.0%
[1]; 50 mg/kg po, day 11
  Body Weight Change(%): 1.5%
[1]; 50 mg/kg po, day 19
  Body Weight Change(%): 1.5%
[1]; 50 mg/kg po, day 20
  Body Weight Change(%): 2.0%
[1]; 50 mg/kg po, day 21
  Body Weight Change(%): 2.0%
[1]; 50 mg/kg po, day 22
  Body Weight Change(%): 1.0%
[1]; 50 mg/kg po, day 23
  Body Weight Change(%): 2.0%
[1]; 50 mg/kg po, day 24
  Body Weight Change(%): 1.5%
[1]; 50 mg/kg po, day 25
  Body Weight Change(%): 0.0%
[1]; 50 mg/kg po, day 26
  Body Weight Change(%): 3.5%
[1]; 50 mg/kg po, day 27
  Body Weight Change(%): 3.5%
[1]; 50 mg/kg po, day 28
  Body Weight Change(%): 4.5%
[1]; 50 mg/kg, day 0
  Body Weight Change(%) (average / SD): 0.0%
[1]; 50 mg/kg, day 1
  Body Weight Change(%) (average / SD): 0.4%
[1]; 50 mg/kg, day 2
  Body Weight Change(%) (average / SD): 0.4%
[1]; 50 mg/kg, day 3
  Body Weight Change(%) (average / SD): 1.8%
[1]; 50 mg/kg, day 4
  Body Weight Change(%) (average / SD): 0.9%
[1]; 50 mg/kg, day 5
  Body Weight Change(%) (average / SD): 0.9%
[1]; 50 mg/kg, day 6
  Body Weight Change(%) (average / SD): 0.2%
[1]; 50 mg/kg, day 7
  Body Weight Change(%) (average / SD): 2.6%
[1]; 50 mg/kg, day 8
  Body Weight Change(%) (average / SD): 2.8%
[1]; 50 mg/kg, day 9
  Body Weight Change(%) (average / SD): 1.2%
[1]; 50 mg/kg, day 10
  Body Weight Change(%) (average / SD): 1.2%
[1]; 50 mg/kg, day 11
  Body Weight Change(%) (average / SD): 0.8%
[1]; 50 mg/kg, day 12
  Body Weight Change(%) (average / SD): 2.3%
[1]; 50 mg/kg, day 13
  Body Weight Change(%) (average / SD): 2.9%
[1]; 50 mg/kg, day 14
  Body Weight Change(%) (average / SD): 3.9%
